Test results reported in ChEMBL document CHEMBL4507315 (2021).
Active and inactive are the calls of the source. The calls are words filed in the database; no cut-off is given here.

Legend:
[1] = target: Mitogen-activated protein kinase 14 (Homo sapiens) (UniProt Q16539); details: Compound concentration 100.0 nM
[2] = target: Protein-tyrosine kinase 2-beta (Homo sapiens) (UniProt Q14289); details: Compound concentration 100.0 nM
Histamine H1 receptor = Histamine H1 receptor (Homo sapiens, UniProt P35367); assay: GPCRScan assay: inhibition of H1; set-up: radioligand conc. used [nm] 0.6 – 2.0, parental cells stable HEK
[3] = target: Cyclin-dependent kinase 14 (Homo sapiens) (UniProt O94921); details: Compound concentration 100.0 nM
[4] = target: Angiopoietin-1 receptor (Homo sapiens) (UniProt Q02763); details: Compound concentration 100.0 nM
[5] = target: Dual specificity mitogen-activated protein kinase kinase 6 (Homo sapiens) (UniProt P52564); details: Compound concentration 100.0 nM
Sequence of Dual specificity mitogen-activated protein kinase kinase 6 (Homo sapiens) (P52564 whole entry): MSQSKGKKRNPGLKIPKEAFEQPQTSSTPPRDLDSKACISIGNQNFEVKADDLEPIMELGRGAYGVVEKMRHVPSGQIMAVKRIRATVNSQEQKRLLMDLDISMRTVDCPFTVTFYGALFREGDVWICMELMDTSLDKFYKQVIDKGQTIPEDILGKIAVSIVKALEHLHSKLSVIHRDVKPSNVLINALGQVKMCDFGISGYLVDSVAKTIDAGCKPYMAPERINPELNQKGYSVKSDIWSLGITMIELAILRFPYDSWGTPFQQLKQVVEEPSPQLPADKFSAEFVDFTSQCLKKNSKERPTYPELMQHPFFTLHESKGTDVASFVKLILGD

[6] = target: Serine/threonine-protein kinase Nek9 (Homo sapiens) (UniProt Q8TD19); details: Compound concentration 100.0 nM
[7] = target: Sigma intracellular receptor 2 (Homo sapiens, UniProt Q5BJF2); assay: GPCRScan assay: inhibition of Sigma 2; set-up: radioligand conc. used [nm] 5.0, parental cells HEKT
[8] = target: Macrophage colony-stimulating factor 1 receptor (Homo sapiens) (UniProt P07333); details: Compound concentration 100.0 nM
[9] = target: D(4) dopamine receptor (Homo sapiens) (UniProt P21917); details: Compound concentration 10.0 uM
[10] = target: Protein kinase C theta type (Homo sapiens) (UniProt Q04759); details: Compound concentration 100.0 nM
Sequence of Protein kinase C theta type (Homo sapiens) (Q04759 whole entry, looked up): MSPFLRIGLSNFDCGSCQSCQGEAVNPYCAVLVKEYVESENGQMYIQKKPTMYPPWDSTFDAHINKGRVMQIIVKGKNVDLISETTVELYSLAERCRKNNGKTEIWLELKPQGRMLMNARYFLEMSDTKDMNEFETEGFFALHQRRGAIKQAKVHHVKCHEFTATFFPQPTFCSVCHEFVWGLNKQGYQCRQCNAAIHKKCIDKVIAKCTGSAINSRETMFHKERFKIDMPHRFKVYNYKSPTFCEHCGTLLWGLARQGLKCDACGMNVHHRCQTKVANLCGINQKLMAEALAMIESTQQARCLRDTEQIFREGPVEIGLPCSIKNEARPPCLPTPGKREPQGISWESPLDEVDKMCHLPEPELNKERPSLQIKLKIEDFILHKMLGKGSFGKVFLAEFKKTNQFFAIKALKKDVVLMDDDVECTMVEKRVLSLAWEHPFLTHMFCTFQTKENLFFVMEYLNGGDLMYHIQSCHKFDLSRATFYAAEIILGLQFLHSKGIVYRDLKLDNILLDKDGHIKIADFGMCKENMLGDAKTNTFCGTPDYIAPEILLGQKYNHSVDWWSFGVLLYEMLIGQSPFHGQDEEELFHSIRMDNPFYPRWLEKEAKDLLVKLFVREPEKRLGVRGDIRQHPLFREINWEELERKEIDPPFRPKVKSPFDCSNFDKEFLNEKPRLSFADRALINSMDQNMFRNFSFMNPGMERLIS

[11] = target: Histamine H2 receptor (Homo sapiens) (UniProt P25021); details: Compound concentration 10.0 uM
[12] = target: Serine/threonine-protein kinase NIM1 (Homo sapiens) (UniProt Q8IY84); details: Compound concentration 100.0 nM
Sequence of Serine/threonine-protein kinase NIM1 (Homo sapiens) (Q8IY84 whole entry, canonical isoform): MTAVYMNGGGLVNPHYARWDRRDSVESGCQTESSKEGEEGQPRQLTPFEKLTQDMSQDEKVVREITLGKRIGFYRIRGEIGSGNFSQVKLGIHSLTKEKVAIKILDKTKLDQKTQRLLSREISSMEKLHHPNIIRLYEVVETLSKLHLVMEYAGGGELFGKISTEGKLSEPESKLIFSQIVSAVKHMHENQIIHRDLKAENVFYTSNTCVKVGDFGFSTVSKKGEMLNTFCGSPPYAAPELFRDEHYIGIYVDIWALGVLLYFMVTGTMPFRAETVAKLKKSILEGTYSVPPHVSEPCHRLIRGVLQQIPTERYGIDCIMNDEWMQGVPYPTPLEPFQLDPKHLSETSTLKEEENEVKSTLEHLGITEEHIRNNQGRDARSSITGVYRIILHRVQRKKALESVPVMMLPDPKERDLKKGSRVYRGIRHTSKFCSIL

[13] = target: Casein kinase I isoform gamma-2 (Homo sapiens) (UniProt P78368); details: Compound concentration 100.0 nM
[14] = target: Kappa-type opioid receptor (Homo sapiens, UniProt P41145); assay: GPCRScan assay: inhibition of KOR; set-up: radioligand conc. used [nm] 0.6 – 1.2, parental cells stable HEK
Sequence of Kappa-type opioid receptor (P41145 whole entry): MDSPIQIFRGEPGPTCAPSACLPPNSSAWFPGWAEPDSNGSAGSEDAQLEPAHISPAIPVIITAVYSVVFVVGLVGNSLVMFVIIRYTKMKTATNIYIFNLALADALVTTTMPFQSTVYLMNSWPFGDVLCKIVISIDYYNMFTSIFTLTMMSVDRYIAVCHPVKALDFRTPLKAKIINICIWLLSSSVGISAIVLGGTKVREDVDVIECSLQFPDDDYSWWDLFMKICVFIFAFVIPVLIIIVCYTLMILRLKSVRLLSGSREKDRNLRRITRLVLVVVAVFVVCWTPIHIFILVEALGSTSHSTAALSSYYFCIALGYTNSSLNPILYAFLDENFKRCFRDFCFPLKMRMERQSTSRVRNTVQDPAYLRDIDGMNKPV

[15] = target: Muscarinic acetylcholine receptor M5 (Homo sapiens) (UniProt P08912); details: Compound concentration 10.0 uM
[16] = target: 1-phosphatidylinositol 3-phosphate 5-kinase (Homo sapiens) (UniProt Q9Y2I7); details: Compound concentration 100.0 nM
Sequence of 1-phosphatidylinositol 3-phosphate 5-kinase (Homo sapiens) (Q9Y2I7 whole entry): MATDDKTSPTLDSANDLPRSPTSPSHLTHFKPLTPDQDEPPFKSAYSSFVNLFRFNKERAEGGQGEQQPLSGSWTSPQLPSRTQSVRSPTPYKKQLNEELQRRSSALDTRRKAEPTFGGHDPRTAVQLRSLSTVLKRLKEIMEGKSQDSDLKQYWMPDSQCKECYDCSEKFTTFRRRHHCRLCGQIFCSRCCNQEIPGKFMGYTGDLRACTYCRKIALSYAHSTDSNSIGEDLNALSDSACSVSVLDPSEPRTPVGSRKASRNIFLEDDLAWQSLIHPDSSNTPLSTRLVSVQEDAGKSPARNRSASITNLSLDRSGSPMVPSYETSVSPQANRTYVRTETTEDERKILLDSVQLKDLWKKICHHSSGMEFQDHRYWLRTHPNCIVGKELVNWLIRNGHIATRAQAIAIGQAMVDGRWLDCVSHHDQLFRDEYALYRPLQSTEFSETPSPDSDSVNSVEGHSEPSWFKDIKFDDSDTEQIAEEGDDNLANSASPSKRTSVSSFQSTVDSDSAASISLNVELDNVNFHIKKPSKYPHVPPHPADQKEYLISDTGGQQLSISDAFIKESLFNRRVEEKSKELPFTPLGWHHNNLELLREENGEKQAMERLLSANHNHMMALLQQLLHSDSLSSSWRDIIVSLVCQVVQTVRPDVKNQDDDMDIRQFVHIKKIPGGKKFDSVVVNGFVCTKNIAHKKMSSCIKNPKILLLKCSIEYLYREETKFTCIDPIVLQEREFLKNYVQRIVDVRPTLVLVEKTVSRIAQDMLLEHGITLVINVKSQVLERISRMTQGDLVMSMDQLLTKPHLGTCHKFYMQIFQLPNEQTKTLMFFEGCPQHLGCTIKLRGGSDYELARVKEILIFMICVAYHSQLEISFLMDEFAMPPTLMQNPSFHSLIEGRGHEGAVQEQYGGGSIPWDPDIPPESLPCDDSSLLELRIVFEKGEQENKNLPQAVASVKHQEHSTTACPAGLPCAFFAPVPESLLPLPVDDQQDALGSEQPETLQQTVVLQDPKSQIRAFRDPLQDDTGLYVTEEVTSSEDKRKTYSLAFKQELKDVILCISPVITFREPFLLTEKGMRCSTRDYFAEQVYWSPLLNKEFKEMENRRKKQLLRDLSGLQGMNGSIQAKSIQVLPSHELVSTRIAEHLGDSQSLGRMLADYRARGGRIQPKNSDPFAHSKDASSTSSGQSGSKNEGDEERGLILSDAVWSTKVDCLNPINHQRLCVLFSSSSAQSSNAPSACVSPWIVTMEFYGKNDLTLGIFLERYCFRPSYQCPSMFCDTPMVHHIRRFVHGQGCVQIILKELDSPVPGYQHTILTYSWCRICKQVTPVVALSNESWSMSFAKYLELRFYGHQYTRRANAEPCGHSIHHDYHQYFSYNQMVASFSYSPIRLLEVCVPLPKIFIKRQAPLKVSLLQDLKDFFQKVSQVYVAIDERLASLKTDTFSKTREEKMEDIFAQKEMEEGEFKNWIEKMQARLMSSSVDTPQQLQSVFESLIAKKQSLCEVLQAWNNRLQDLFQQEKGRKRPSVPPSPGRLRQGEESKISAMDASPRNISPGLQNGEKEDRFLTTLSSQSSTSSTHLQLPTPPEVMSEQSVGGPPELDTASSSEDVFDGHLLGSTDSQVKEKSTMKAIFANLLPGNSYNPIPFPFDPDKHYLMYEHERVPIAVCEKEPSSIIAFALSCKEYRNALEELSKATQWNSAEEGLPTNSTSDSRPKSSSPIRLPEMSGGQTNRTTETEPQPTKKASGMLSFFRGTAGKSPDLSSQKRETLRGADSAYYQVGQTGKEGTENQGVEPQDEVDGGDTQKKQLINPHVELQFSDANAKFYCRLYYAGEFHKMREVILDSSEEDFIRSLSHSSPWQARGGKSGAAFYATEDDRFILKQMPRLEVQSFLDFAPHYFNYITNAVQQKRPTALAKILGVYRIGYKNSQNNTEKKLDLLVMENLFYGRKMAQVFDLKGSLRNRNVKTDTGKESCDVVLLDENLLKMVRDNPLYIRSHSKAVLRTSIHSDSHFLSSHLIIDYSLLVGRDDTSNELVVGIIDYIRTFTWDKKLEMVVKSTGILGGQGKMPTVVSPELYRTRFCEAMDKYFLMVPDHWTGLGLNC

[17] = target: Mu-type opioid receptor (Homo sapiens) (UniProt P35372); details: Compound concentration 10.0 uM
[18] = target: Serine/threonine-protein kinase N2 (Homo sapiens) (UniProt Q16513); details: Compound concentration 100.0 nM
[19] = test system: Tyrosine-protein kinase ABL1 (Homo sapiens), P00519 [F317I]; details: Compound concentration 100.0 nM
Sequence of Tyrosine-protein kinase ABL1 (Homo sapiens), P00519 [F317I] (P00519 whole entry F317I): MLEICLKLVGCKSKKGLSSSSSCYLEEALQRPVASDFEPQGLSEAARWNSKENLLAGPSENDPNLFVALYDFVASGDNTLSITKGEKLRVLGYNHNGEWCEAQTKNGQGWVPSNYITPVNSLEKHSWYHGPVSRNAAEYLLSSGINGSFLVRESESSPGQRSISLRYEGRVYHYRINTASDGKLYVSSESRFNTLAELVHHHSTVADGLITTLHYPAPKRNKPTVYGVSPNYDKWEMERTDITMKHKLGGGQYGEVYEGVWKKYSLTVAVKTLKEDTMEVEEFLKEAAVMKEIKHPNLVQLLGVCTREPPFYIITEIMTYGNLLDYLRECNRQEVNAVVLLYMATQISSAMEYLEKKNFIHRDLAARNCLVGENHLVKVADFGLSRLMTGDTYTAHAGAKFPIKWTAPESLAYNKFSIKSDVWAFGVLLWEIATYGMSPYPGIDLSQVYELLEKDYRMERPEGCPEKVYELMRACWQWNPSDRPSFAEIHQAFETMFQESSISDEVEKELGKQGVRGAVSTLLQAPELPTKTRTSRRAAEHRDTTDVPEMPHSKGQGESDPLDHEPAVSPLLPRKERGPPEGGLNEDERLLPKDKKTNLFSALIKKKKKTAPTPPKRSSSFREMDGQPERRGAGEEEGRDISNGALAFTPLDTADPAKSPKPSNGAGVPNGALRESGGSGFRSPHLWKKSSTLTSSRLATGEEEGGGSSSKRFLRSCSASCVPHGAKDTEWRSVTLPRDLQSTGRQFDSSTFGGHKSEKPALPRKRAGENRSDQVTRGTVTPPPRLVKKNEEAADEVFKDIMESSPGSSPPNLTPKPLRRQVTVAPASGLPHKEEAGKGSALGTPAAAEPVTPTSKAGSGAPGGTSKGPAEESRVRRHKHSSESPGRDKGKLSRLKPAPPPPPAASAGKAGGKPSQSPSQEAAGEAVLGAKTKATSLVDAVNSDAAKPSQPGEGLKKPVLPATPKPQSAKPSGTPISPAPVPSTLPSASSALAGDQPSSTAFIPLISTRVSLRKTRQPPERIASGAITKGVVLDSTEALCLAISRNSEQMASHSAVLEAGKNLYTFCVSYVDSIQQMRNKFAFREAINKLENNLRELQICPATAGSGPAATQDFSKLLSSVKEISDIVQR

[20] = target: Tyrosine-protein kinase JAK3 (Homo sapiens) (UniProt P52333); details: Compound concentration 100.0 nM
[21] = target: Histamine H3 receptor (Homo sapiens) (UniProt Q9Y5N1); details: Compound concentration 10.0 uM
[22] = target: Phosphorylase b kinase gamma catalytic chain, skeletal muscle/heart isoform (Homo sapiens) (UniProt Q16816); details: Compound concentration 100.0 nM
Rattus norvegicus = species: Rattus norvegicus; details: Compound concentration 10.0 uM
[23] = target: Heat shock protein beta-1 (Homo sapiens, UniProt P04792); assay: Inhibition of HSP27 (Ser82) (Western blot)

SMILES	residual activity [2] [%]	residual activity [3] [%]	residual activity [4] [%]	residual activity [5] [%]	residual activity [6] [%]	residual activity [8] [%]	residual activity [10] [%]	residual activity [12] [%]	residual activity [13] [%]	residual activity [16] [%]	inhibition [17] [%]	residual activity [18] [%]	residual activity [19] [%]	residual activity [20] [%]	inhibition [21] [%]	residual activity [22] [%]	also measured
O=C(NCCCC1CCCCC1)c1ccc(CNC(=O)c2cnn(-c3ccccc3)c2C(F)(F)F)cc1 [SR-321]	93	100	100	79	100	100	100	70	96	65	19.4	100	100	100	9.12	100	residual activity [1]: 100%; Ki (Histamine H1 receptor): > 10000 nM; pKi (Histamine H1 receptor): < 5; Ki ([7]; read-out: Ki): 2890 nM; Ki ([7]; read-out: pKi (converted)): 2820 nM; inhibition [9]: 21.7%; inhibition [11]: -2.78%; Ki [14]: > 10000 nM; pKi [14]: < 5; inhibition [15]: -4.46%
Nc1c(C(=O)NCc2ccc(C(=O)NCCCC3CCCCC3)cc2)cnn1-c1ccccc1 [SR-318]	99	100	100	79	100	100	100	81	94	100	41.2	78	100	100	-2.98	90	inhibition (Rattus norvegicus): 27.6%; IC50 [23]: < 1000 nM (active)
